Entries after “also recorded” stand apart in the source; their conditions may differ.
Assays:
C57Bl/6J female mice = assay: Serum triglyceride and lipid effects in C57Bl/6J female mice; format: in vivo
mouse PPARα = target: T1, mouse PPARα (Mus musculus, UniProt P23204); assay: PPAR-GAL4 transactivation assay in transiently transfected CV-1 cells; format: cell-based; conditions: PPAR-GAL4 chimeric receptor, read-out: EC50(nM) mPPARα
T1 construct: expressed in transfected cells; host or cells: CV-1 (monkey kidney) cells, transient transfection
T1 sequence (P23204 159-468): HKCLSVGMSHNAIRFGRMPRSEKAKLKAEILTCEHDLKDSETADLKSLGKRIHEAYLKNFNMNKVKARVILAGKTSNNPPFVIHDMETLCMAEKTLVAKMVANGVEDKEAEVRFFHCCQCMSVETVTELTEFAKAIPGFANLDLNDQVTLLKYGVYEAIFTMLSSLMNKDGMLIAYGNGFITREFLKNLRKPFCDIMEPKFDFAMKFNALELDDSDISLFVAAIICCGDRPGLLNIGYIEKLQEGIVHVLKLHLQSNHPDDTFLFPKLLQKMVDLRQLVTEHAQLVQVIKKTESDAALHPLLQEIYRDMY
Procedure: To assess the functional transcriptional activity of these compounds, cell-based assays using chimeric receptor Gal4 DNA-binding domain (DBD)-NR ligand binding domain cotransfection assay (LBDs of PPARα, PPARγ, and PPARδ) were performed. As an initial screen to determine the PPARα activity and selectivity, all compounds were evaluated for in vitro potency and selectivity by transfection testing, using CV-1 cells transfected with human and mouse PPARs. MH100×4 is a luciferase reporter with four copies of a GAL4 UASG response element, where GAL-I refers to the ligand-binding domain of the indicated receptor fused to the C-terminus of the GAL4 DNA-binding domain. Assays were performed using a Biomek automated workstation in which the genes for the nuclear receptor, as well as a plasmid containing a response element upstream of a luciferase cDNA, are transfected into CV-1 cells. Compounds were evaluated for their ability to activate human and mouse PPARs at […] test concentrations. […] The transactivation activity of the series of compounds (DY121-132, 10a-g) toward PPARα was expressed as EC50, which is the concentration of the test compound that affords half-maximum activity, as summarized in Table 1.
In vitro binding and transfection studies. As an initial screen to determine the PPARα, PPARγ, and PPARδ activity, all compounds were evaluated for in vitro potency and selectivity by transfection testing, using CV-1 cells transfected with human and mouse PPARs. MH100×4 is a luciferase reporter with four copies of a GAL4 USAG response element, where GAL-I refers to the ligand-binding domain of the indicated receptor fused to the C-terminus of the GAL4 DNA-binding domain. Assays were performed using a Biomek automated workstation in which the gene for the nuclear receptor, as well as a plasmid containing a response element upstream of a luciferase cDNA, are transfected into CV-1 cells. Compounds were evaluated for their ability to activate human PPARs at 1, 2.5, 3, and 5 uM test concentrations.
Compounds were screened for agonist activity towards PPAR-GAL4 chimeric receptors in transiently transfected CV-1 cells as described. EC50 is the concentration of test compound that gave 50% maximum efficacy.

PPARα = target: T2, PPARα (Homo sapiens, UniProt Q07869); assay: PPRE-luc reporter assay in CV-1 cells co-transfected with PPARα and RXRα expression plasmids; format: cell-based; conditions: luciferase reporter
T2 construct: expressed in transfected cells; host or cells: CV-1 (monkey kidney) cells
T2 sequence (Q07869 1-468): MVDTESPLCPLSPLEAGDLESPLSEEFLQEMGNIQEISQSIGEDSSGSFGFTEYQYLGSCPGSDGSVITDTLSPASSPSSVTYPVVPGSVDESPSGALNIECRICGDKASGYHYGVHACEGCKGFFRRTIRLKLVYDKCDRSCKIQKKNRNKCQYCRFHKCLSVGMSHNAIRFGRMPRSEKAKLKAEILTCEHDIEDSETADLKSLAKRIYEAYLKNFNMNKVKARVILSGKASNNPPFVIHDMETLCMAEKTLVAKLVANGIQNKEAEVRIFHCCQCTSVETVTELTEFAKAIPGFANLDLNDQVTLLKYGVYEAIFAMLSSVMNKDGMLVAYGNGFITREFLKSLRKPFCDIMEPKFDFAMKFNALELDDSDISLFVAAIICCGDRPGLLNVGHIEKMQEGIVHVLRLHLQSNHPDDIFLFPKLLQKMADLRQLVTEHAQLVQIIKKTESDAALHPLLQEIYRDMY
T2 sequence (P19793 1-462 partner): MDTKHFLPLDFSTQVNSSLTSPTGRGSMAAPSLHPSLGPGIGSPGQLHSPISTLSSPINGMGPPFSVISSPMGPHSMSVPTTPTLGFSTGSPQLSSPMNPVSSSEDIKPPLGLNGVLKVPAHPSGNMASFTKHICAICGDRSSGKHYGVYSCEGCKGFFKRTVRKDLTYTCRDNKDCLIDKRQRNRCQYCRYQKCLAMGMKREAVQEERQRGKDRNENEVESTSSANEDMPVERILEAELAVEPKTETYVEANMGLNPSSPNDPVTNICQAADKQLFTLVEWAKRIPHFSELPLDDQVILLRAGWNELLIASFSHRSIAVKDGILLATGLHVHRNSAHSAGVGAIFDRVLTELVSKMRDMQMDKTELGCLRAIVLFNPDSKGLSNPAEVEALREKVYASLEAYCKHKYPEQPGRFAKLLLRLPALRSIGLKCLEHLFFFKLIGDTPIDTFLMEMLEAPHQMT
Procedure: In brief, monkey kidney CV-1 cells were co-transfected with appropriate reporter constructs and expression vectors. The fold activation of the reporter construct by ligand was determined at several concentrations of selected compounds (FIG. 4).^20 To examine the effect of DY-compound on PPARα-mediated PPRE transcriptional activation, a PPRE-luc reporter assay was conducted using a PPRE-driven luciferase reporter-gene (PPRE-luc) plasmid and PPARα and RXRα gene expression plasmids in CV-1 cells.

For `COc1ccc(Cn2c(CCCc3ccc(OC(C)(C)C(=O)O)cc3)nn(Cc3ccc(C)cc3)c2=O)cc1` [10a, 2-(4-{3-[4-(4-Methoxy-benzyl)-1-(4-methyl-benzyl)-5-oxo-4,5-dihydro-1H[1,2,4]triazol-3-yl]-propyl}-phenoxy)-2-methyl-propionic acid], the “triglycerides, time course” value (C57Bl/6J female mice; 24 h vs 72 h, wild type and PPARα-knockout mice (FIG. 8)) was “maintained over 72 h in wild type but not PPARα-knockout mice”, the “triglycerides, chronic treatment” value (C57Bl/6J female mice; 7 day period (FIG. 10)) was “suppressed triglycerides over the entire 7 day period” and the “dose-response of triglyceride suppression” value (C57Bl/6J female mice; FIG. 7, listed as DY121) was “Dose-response suppression; also recorded: dose-dependent anti-dyslipidemic effects”. For the same compound, the “FFA and glycerol time course” value (C57Bl/6J female mice; FIG. 14 and 15) was “early increase (lipolytic burst) followed by decline”, the EC50 (mouse PPARα) was 3 nM and the “PPARα activation / PPRE-luc activity” value (PPARα) was “highest PPARα activation”.
